Columns and labels:
[1] = system: HeLa cells expressing mt-Keima and YFP-Parkin (HeLa MKYP); test: Human mt-Keima mitophagy assay; assay type: cell-based; settings: 16 hrs with compound, then FCCP/oligomycin for 6 hours, FACS
Protocol: Briefly, HeLa cells expressing mt-Keima and YFP-Parkin (HeLa MKYP) were plated at 10,000 cells/well in 96 well plates along with compounds at various concentrations. Following 16 hrs of incubation, cells were treated with […] FCCP/oligomycin for 6 hours, then analyzed via FACS for the presence of mitochondria in lysosomes (as determined by an emissions spectrum shift from the pH-sensitive mt-Keima tag).

[2] = system: SKOV3 cells; test: In vitro mitosafety (glucose/galactose) assay; assay type: cell-based; settings: highest mito-safe dose (gal/glc >0.80, IC20, SKOV3 cells, 20 hours) divided by mt-Keima EC50
Protocol: Briefly, SKOV3 cells (ATCC HTB-77) were plated in DMEM (Corning 10-013-CV) medium containing 25 mM glucose or DMEM with no glucose (Gibco 11966-025) supplemented with 10 mMV galactose at 9,000 cells/well in 96 well plates (Corning costar 3610). 24 hrs later, compounds, in DMSO, were added at various concentrations to a final 0.1% DMSO for all wells. […] After a 15 minute incubation cellular ATP levels were read out using a Promega GloMax® DiscoverMicroplate Reader.
The ratio of relative CellTiter-Glo values from cells grown in galactose to cells grown in glucose was determined (gal/glc ratio). The gal/glc ratio vs concentration is then graphed, and non-linear regression is used to find the highest concentration of MTK compound at which gal/glc >0.80 (the “highest mito-safe dose”, or IC20).

SMILES | EC50 ([1]; Homo sapiens, HeLa) [nM] | Mito-Safety Index (highest safe dose/EC50) [2] | EC50 [1] [nM]
FC(F)OC1CN([C@H]2COc3ccccc3[C@@H]2Nc2ncnc3[nH]c(C4CC4)cc23)C1 (relative stereo) [EP-0041832, 6-Cyclopropyl-N-[Trans-3-[3-(Difluoromethoxy)Azetidin-1-Yl]Chroman-4-Yl]-7H-Pyrrolo[2,3-D]Pyrimidin-4-Amine] | 346 | 72.23 | 
c1ccc2c(c1)OC[C@H](N1CCC3(CCCO3)C1)[C@H]2Nc1ncnc2[nH]c(C3CC3)cc12 (single isomer, unassigned) [EP-0042934] |  | 55.78 | 35
c1ccc2c(c1)OC[C@H](N1CCC3(CCCO3)C1)[C@H]2Nc1ncnc2[nH]c(C3CC3)cc12 (single isomer, unassigned) [EP-0042935] |  | 211.76 | 
OC1([C@H]2COc3ccccc3[C@@H]2Nc2ncnc3[nH]c(C4CC4)cc23)CCOCC1 [EP-0042202, 4-[(3R,4R)-4-[(6-Cyclopropyl-7H-Pyrrolo[2,3-D]Pyrimidin-4-Yl)Amino]Chroman-3-Yl]Tetrahydropyran-4-Ol] | 215 | 116.5 | 
F[C@@H]1CCN([C@H]2COc3ccccc3[C@@H]2Nc2ncnc3[nH]c(C4CC4)cc23)C1 [EP-0042534, 6-Cyclopropyl-N-((3R,4S)-3-((R)-3-Fluoropyrrolidin-1-Yl)Chroman-4-Yl)-7H-Pyrrolo[2,3-D]Pyrimidin-4-Amine] | 349 | 71.21 | 
c1ccc2c(c1)OC[C@H](N1CCOC3(CC3)C1)[C@H]2Nc1ncnc2[nH]c(C3CC3)cc12 [EP-0042535, N-((3R,4S)-3-(4-Oxa-7-Azaspiro[2.5]Octan-7-Yl)Chroman-4-Yl)-6-Cyclopropyl-7H-Pyrrolo[2,3-D]Pyrimidin-4-Amine] | 244 | 102.55 | 
F[C@H]1CCN([C@H]2COc3ccccc3[C@@H]2Nc2ncnc3[nH]c(C4CC4)cc23)C1 [EP-0042536, 6-Cyclopropyl-N-((3R,4S)-3-((S)-3-Fluoropyrrolidin-1-Yl)Chroman-4-Yl)-7H-Pyrrolo[2,3-D]Pyrimidin-4-Amine] | 154 | 89.78 | 
CO[C@H]1CCCN([C@H]2COc3ccccc3[C@@H]2Nc2ncnc3[nH]c(C4CC4)cc23)C1 [EP-0042537, 6-Cyclopropyl-N-((3R,4S)-3-((S)-3-Methoxypiperidin-1-Yl)Chroman-4-Yl)-7H-Pyrrolo[2,3-D]Pyrimidin-4-Amine] | 268 | 37.03 | 
FC1(F)CCN([C@H]2COc3ccccc3[C@@H]2Nc2ncnc3[nH]c(C4CC4)cc23)C1 [EP-0042660, 6-Cyclopropyl-N-((3R,4S)-3-(3,3-Difluoropyrrolidin-1-Yl)Chroman-4-Yl)-7H-Pyrrolo[2,3-D]Pyrimidin-4-Amine] | 139 | 179.63 | 
FC(F)(F)c1cc2c(N[C@H]3c4ccccc4OC[C@@H]3N3CCOC4(CC4)C3)ncnc2[nH]1 [EP-0042970, N-((3R,4S)-3-(4-Oxa-7-Azaspiro[2.5]Octan-7-Yl)Chroman-4-Yl)-6-(Trifluoromethyl)-7H-Pyrrolo[2,3-D]Pyrimidin-4-Amine] | 404 | 61.94 | 
F[C@H]1CCN([C@H]2COc3ccccc3[C@@H]2Nc2ncnc3[nH]c(C(F)(F)F)cc23)C1 [EP-0042972, N-((3R,4S)-3-((S)-3-Fluoropyrrolidin-1-Yl)Chroman-4-Yl)-6-(Trifluoromethyl)-7H-Pyrrolo[2,3-D]Pyrimidin-4-Amine] | 387 | 62.14 | 
N#C[C@H]1CCN([C@H]2COc3ccccc3[C@@H]2Nc2ncnc3[nH]c(C(F)(F)F)cc23)C1 [EP-0043263, (S)-1-((3R,4S)-4-((6-(Trifluoromethyl)-7H-Pyrrolo[2,3-D]Pyrimidin-4-Yl)Amino)Chroman-3-Yl)Pyrrolidine-3-Carbonitrile] | 97 | 120.52 | 
N#C[C@@H]1CCN([C@H]2COc3ccccc3[C@@H]2Nc2ncnc3[nH]c(C(F)(F)F)cc23)C1 [EP-0043264, (R)-1-((3R,4S)-4-((6-(Trifluoromethyl)-7H-Pyrrolo[2,3-D]Pyrimidin-4-Yl)Amino)Chroman-3-Yl)Pyrrolidine-3-Carbonitrile] | 129 | 91.68 | 
N#C[C@H]1CCN([C@H]2COc3ccccc3[C@@H]2Nc2ncnc3[nH]c(C4CC4)cc23)C1 [EP-0043271, (S)-1-((3R,4S)-4-((6-Cyclopropyl-7H-Pyrrolo[2,3-D]Pyrimidin-4-Yl)Amino)Chroman-3-Yl)Pyrrolidine-3-Carbonitrile] |  | 74.90 | 65
CO[C@@H]1CCN([C@H]2COc3cc(F)ccc3[C@@H]2Nc2ncnc3[nH]c(C(F)(F)F)cc23)C1 [EP-0043690, N-((3R,4S)-7-fluoro-3-((R)-3-methoxypyrrolidin-1-yl)chroman-4-yl)-6-(trifluoromethyl)-7H-pyrrolo[2,3-d]pyrimidin-4-amine] | 140 | 68.6 | 
C[C@@H]1CCN([C@H]2COc3ccccc3[C@@H]2Nc2ncnc3[nH]c(C(F)(F)F)cc23)C1 [EP-0043821, N-((3R,4S)-3-((R)-3-methylpyrrolidin-1-yl)chroman-4-yl)-6-(trifluoromethyl)-7H-pyrrolo[2,3-d]pyrimidin-4-amine] | 30 | 70.0 | 
C[C@@H]1CN([C@H]2COc3cc(F)ccc3[C@@H]2Nc2nccc3[nH]c(C(F)(F)F)cc23)CCO1 [EP-0043830, N-((3R,4S)-7-fluoro-3-((R)-2-methylmorpholino)chroman-4-yl)-2-(trifluoromethyl)-1H-pyrrolo[3,2-c]pyridin-4-amine] | 50 | 118.0 | 
Fc1ccc2c(c1)OC[C@H](N1CCOC3(CC3)C1)[C@H]2Nc1ncnc2[nH]c(C(F)(F)F)cc12 [EP-0043834, N-((3R,4S)-7-fluoro-3-(4-oxa-7-azaspiro[2.5]octan-7-yl)chroman-4-yl)-6-(trifluoromethyl)-7H-pyrrolo[2,3-d]pyrimidin-4-amine] | 560 | 40.9 | 

Further molecules by falling EC50 ([1]; Homo sapiens, HeLa), results first:

EC50 ([1]; Homo sapiens, HeLa) [nM] | SMILES | Mito-Safety Index (highest safe dose/EC50) [2] | EC50 [1] [nM]
600 | FC(F)C1CN([C@H]2COc3ccccc3[C@@H]2Nc2ncnc3[nH]c(C(F)(F)F)cc23)C1 [EP-0043831, N-((3R,4S)-3-(3-(difluoromethyl)azetidin-1-yl)chroman-4-yl)-6-(trifluoromethyl)-7H-pyrrolo[2,3-d]pyrimidin-4-amine] | 41.7 | 
480 | Fc1ccc2c(c1)OC[C@H](N1CC[C@H](F)C1)[C@H]2Nc1ncnc2[nH]c(C(F)(F)F)cc12 [EP-0043839, N-((3R,4S)-7-fluoro-3-((S)-3-fluoropyrrolidin-1-yl)chroman-4-yl)-6-(trifluoromethyl)-7H-pyrrolo[2,3-d]pyrimidin-4-amine] | 41.3 | 
448 | CO[C@H]1CCCN([C@H]2COc3ccccc3[C@@H]2Nc2ncnc3[nH]c(C(F)(F)F)cc23)C1 [EP-0043439, N-((3R,4S)-3-((S)-3-Methoxypiperidin-1-Yl)Chroman-4-Yl)-6-(Trifluoromethyl)-7H-Pyrrolo[2,3-D]Pyrimidin-4-Amine] | 48.93 | 
415 | FC(F)(F)c1cc2c(N[C@H]3c4ccccc4OC[C@@H]3C3(F)CCOCC3)ncnc2[nH]1 [EP-0043236, N-[(3R,4R)-3-(4-Fluorotetrahydropyran-4-Yl)Chroman-4-Yl]-6-(Trifluoromethyl)-7H-Pyrrolo[2,3-D]Pyrimidin-4-Amine] | 59.18 | 
372 | FC(F)(F)c1cc2c(N[C@H]3c4ccccc4OC[C@@H]3N3CCCC3)ncnc2[nH]1 [EP-0043440, N-((3R,4S)-3-(Pyrrolidin-1-Yl)Chroman-4-Yl)-6-(Trifluoromethyl)-7H-Pyrrolo[2,3-D]Pyrimidin-4-Amine] | 60.76 | 
251 | c1ccc2c(c1)OC[C@H](N1CCCC1)[C@H]2Nc1ncnc2[nH]c(C3CC3)cc12 [EP-0042659, 6-Cyclopropyl-N-((3R,4S)-3-(Pyrrolidin-1-Yl)Chroman-4-Yl)-7H-Pyrrolo[2,3-D]Pyrimidin-4-Amine] | 54.54 | 
230 | C[C@@H]1CN([C@H]2COc3c(F)cccc3[C@@H]2Nc2ncnc3[nH]c(C(F)(F)F)cc23)CCO1 [EP-0043827, N-((3R,4S)-8-fluoro-3-((R)-2-methylmorpholino)chroman-4-yl)-6-(trifluoromethyl)-7H-pyrrolo[2,3-d]pyrimidin-4-amine] | 108.7 | 
218 | OC1([C@H]2COc3ccccc3[C@@H]2Nc2ncnc3[nH]c(C(F)(F)F)cc23)CCOCC1 [EP-0042356, 4-[(3R,4R)-4-[[6-(Trifluoromethyl)-7H-Pyrrolo[2,3-D]Pyrimidin-4-Yl]Amino]Chroman-3-Yl]Tetrahydropyran-4-Ol] | 114.63 | 
170 | FC(F)(F)C1CN([C@H]2COc3ccccc3[C@@H]2Nc2ncnc3[nH]c(C4CC4)cc23)CCO1 (single isomer, unassigned) [EP-0042928] | 42.17 | 
110 | CC1(C#N)CCN([C@H]2COc3ccccc3[C@@H]2Nc2ncnc3[nH]c(C(F)(F)F)cc23)C1 (single isomer, unassigned) [EP-0043816] | 75.4 | 
38 | N#C[C@H]1CCN([C@H]2COc3ccccc3[C@@H]2Nc2ncnc3[nH]c(C4CC4)cc23)C1 [EP-0042930] | 105.8 | 
